Results on eleven compounds are retold here after patent publication US5116941A, “Peptide substrates for determination of enzyme activity” (Nitto Boseki Co., Ltd., priority 1988, dated 1992).

Counter-ions that a name gives are not always drawn. Where a SMILES comes first, the peptide text is derived from it.

Assay [1] addresses T1, Trypsin (Bos taurus, UniProt P00760).
T1 construct: purchased Wersinton (so in the source)
T1 sequence (P00760 24-246): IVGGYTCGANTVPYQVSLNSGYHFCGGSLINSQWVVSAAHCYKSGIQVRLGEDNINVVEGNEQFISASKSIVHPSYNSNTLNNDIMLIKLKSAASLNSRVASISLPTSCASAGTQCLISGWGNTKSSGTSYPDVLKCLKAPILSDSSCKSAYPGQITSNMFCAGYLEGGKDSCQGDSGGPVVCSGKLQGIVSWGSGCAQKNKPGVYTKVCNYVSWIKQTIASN
The assay can be described thus: Substrate specificity: enzyme reaction with trypsin, colorimetric. Particulars: for absorbance (O.D.) measured, Try: So = 0.4 mmol, 37° C., 5 minutes, pH 8.0. It counts as biochemical, Bovine. The procedure:
(§1) Specificity of each of the new substrates synthesized in Examples 1 through 4 was examined by reacting with each enzyme. Details of reagents used are as described below.
(§2) (2) Buffer: concentration of Tris, NaCl and CaCl2 and pH (25° C.) were set as shown below, depending upon enzyme. […]
(§3) Enzyme used and its source, etc. are as follows. […]
Trypsin Bovine Wersinton 31M771 10 μg/ml
(§4) (4) Terminate solution (PNA): 10% acetic acid
(§5) (5) Color forming reagent (CHA): pentacyanoamineferroate
(§6) Buffer, 0.5 ml and 0.1 ml of substrate solution are charged in a silicone-treated hard glass test tube or plastic test tube. The mixture is previously heated for 10 minutes in a thermostat at 37° C. Then, 0.1 ml of enzyme solution is added to the mixture to perform enzyme reaction at 37° C. for 5 minutes. Accurately 5 minutes after, 2.0 ml of the terminate solution is added to stop the enzyme reaction. Then the reaction mixture is allowed to stand at 37° C. for 10 minutes and its absorbance is measured at 405 nm or 700 nm.

In assay [2] the target is T2, Thrombin (Bos taurus, UniProt P00735).
T2 construct: purchased Mochida Pharmaceutical Company Lot 65146
Briefly: Substrate specificity: enzyme reaction with thrombin, colorimetric. Type of assay: biochemical, Bovine. Particulars: for absorbance (O.D.) measured, TH: So = 0.4 mmol, 37° C., 5 minutes, pH 8.5. The procedure: as §1, §2, §3, §4, §5, §6

Assay [3] concerns Kallikrein. The assay can be described thus: Substrate specificity: enzyme reaction with kallikrein, colorimetric. It counts as biochemical, Swine. Particulars: So = 0.4 mmol, 37° C., 5 minutes, pH 7.8. The procedure: as §1, §2, §3, §4, §5, §6
Assay [4] concerns the target T3, Factor Xa (Bos taurus, UniProt P00743).
T3 construct: purchased Sigma Inc. Lot 73F-9450
The assay can be described thus: Substrate specificity: enzyme reaction with factor Xa, colorimetric. It counts as biochemical, Bovine. The settings on record: for absorbance (O.D.) measured, FXa: So = 0.4 mmol, 37° C., 5 minutes, pH 8.3. The procedure:
as §1, §2, §3, §4, §5, §6

For assay [5], the target named is T4, Plasmin (Homo sapiens, UniProt P00747). The assay can be described thus: Substrate specificity: enzyme reaction with plasmin, colorimetric. Type of assay: biochemical. Further details: purchased Green Cross Company Lot PL-35. The settings on record: for absorbance (O.D.) measured, PL: So = 0.4 mmol, 37° C., 5 minutes, pH 7.8. The procedure: as §1, §2, §3
Plasmin Human Green Cross PL-35 0.25 CU/ml
as §4, §5, §6
Target sequence in this assay (P00747 581-810 limits assumed): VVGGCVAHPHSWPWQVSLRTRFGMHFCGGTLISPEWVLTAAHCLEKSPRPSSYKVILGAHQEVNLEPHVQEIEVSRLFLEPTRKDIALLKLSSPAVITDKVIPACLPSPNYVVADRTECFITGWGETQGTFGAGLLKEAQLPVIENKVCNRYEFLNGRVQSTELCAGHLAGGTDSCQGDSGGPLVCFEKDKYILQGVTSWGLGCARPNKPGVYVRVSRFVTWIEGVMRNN
Target sequence in this assay (P00747 97-580 partner limits assumed): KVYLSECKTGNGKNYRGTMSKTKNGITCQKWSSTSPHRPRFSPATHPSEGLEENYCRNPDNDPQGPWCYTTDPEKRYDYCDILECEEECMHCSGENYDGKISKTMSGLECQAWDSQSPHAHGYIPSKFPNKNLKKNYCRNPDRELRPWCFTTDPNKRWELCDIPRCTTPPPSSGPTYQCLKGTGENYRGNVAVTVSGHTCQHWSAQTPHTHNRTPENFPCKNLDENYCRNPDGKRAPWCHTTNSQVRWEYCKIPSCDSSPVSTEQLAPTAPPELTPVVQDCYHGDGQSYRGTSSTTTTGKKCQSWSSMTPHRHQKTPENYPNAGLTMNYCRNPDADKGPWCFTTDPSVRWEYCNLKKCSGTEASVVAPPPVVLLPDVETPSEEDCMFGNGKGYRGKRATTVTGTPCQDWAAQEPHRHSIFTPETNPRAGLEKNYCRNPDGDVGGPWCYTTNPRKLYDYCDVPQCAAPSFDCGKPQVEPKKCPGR

Assay [6] deals with thrombin (Homo sapiens, UniProt P00734). The settings on record: it is known; cited from earlier work.
The target in assay [7] is T4, Plasmin. The settings on record: it is known; cited from earlier work.
Target sequence in this assay (P00747 581-810 limits assumed, species assumed): as the sequence (P00747 581-810 limits assumed) above
Target sequence in this assay (P00747 97-580 partner limits assumed, species assumed): as the sequence (P00747 97-580 partner limits assumed) above
Assay [8] addresses factor Xa (Homo sapiens, UniProt P00742). Particulars: it is known; cited from earlier work.
The mark [9] stands for this setting: 700 nm, pentacyanoamineferroate.
Where [10] appears, read: CHR-TRY is made 100, So=0.4 mmol.

T3 sequence (P00743 234-492 limits assumed): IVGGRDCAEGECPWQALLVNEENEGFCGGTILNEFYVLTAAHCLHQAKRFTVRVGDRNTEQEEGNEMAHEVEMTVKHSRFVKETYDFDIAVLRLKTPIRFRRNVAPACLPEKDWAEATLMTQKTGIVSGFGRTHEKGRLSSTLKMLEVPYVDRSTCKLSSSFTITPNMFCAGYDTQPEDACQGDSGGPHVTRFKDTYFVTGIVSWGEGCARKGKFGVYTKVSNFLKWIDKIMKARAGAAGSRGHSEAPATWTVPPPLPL
T3 sequence (P00743 41-180 partner limits assumed): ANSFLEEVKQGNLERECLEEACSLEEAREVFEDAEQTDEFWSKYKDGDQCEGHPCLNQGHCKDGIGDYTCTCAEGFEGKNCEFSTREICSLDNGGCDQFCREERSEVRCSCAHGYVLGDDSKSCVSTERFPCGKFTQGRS
Chain of factor Xa (P00742 235-488 limits assumed): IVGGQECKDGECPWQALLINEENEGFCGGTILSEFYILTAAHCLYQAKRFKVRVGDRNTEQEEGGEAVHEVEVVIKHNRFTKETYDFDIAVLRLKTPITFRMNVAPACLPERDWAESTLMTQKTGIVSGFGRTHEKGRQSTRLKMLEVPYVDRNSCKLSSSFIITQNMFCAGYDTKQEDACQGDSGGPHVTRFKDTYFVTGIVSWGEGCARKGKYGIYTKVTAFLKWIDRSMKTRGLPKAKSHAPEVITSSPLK
Chain of factor Xa (P00742 41-179 partner limits assumed): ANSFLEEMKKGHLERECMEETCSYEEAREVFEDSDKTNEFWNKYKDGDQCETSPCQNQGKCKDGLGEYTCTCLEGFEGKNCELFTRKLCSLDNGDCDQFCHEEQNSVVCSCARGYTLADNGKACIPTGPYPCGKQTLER

For `N=C(N)NCCC[C@H](NC(=O)[C@@H]1CCCCN1C(=O)[C@@H]1CCC(=O)N1)C(=O)Nc1ccc(O)c(C(=O)O)c1` [PS-1292], the “absorbance (O.D.) measured, Try” value in assay [1] (setting [9]) amounted to 0.814 O.D. Also, the “absorbance (O.D.) measured, TH” value in assay [2] (setting [9]) is on record as 0.021 O.D. Moreover, the “absorbance (O.D.) measured, KL” value in assay [3] (setting [9]) is on record as 0.002 O.D. The “absorbance (O.D.) measured, FXa” value in assay [4] (setting [9]) came to 0.007 O.D. In addition, the “absorbance (O.D.) measured, PL” value in assay [5] (setting [9]) worked out at 0.005 O.D.
The corresponding values for `N=C(N)NCCC[C@H](NC(=O)[C@@H]1CCCN1C(=O)[C@@H]1CCC(=O)N1)C(=O)Nc1ccc(O)c(C(=O)O)c1` [PS-1242, H--PyroGlu--Pro--Arg--CHA] are 0.570 O.D, 0.022 O.D, 0.004 O.D, 0.008 O.D and 0.013 O.D.
The corresponding values for `CC(C)[C@H](NC(=O)[C@@H]1CCC(=O)N1)C(=O)N[C@@H](CCCNC(=N)N)C(=O)Nc1ccc(O)c(C(=O)O)c1` [PS-1293, H--PyroGlu--Val--Arg--CHA.HCl] are 0.434 O.D, 0.002 O.D, 0.002 O.D, 0.007 O.D and 0.007 O.D.
Regarding `C[C@H](NC(=O)[C@@H]1CCC(=O)N1)C(=O)N[C@@H](CCCNC(=N)N)C(=O)Nc1ccc(O)c(C(=O)O)c1` [PS-1245, H-PyroGlu-Ala-Arg-CHA], the “absorbance (O.D.) measured, Try” value in assay [1] (setting [9]) is on record as 0.676 O.D. Moreover, the “reactivity with trypsin relative to CHR-TRY” value in assay [1] (CHR-TRY is made 100) amounted to 278%. Besides, the “Relative Reactivity of Substrate to Each Enzyme, Try” value in assay [1] (setting [10]) is recorded as 278. The “absorbance (O.D.) measured, TH” value in assay [2] (setting [9]) came out at 0.006 O.D. Also, the “reactivity with thrombin relative to CHR-TRY” value in assay [2] (CHR-TRY is made 100) came to 12%. In assay [2] (setting [10]), the “Relative Reactivity of Substrate to Each Enzyme, TH” value is reported as 12. Moreover, the “absorbance (O.D.) measured, KL” value in assay [3] (setting [9]) is on record as 0.005 O.D. Also, the “absorbance (O.D.) measured, FXa” value in assay [4] (setting [9]) was determined as 0.008 O.D. Also, the “reactivity with factor Xa relative to CHR-TRY” value in assay [4] (CHR-TRY is made 100) came to 19%. The “Relative Reactivity of Substrate to Each Enzyme, FXa” value in assay [4] (setting [10]) is recorded as 9. In assay [5] (setting [9]), the “absorbance (O.D.) measured, PL” value came to 0.005 O.D. Moreover, in assay [5] (CHR-TRY is made 100), the “reactivity with plasmin relative to CHR-TRY” value is on record as 36%. Besides, the “Relative Reactivity of Substrate to Each Enzyme, PL” value in assay [5] (setting [10]) was found to be 36.
As to “H--D--PyroGlu--Pro--Arg--CHA.HCl [PS-1291]”, the “absorbance (O.D.) measured, Try” value in assay [1] (setting [9]) worked out at 0.556 O.D. Besides, the “absorbance (O.D.) measured, TH” value in assay [2] (setting [9]) was 0.012 O.D. The “absorbance (O.D.) measured, KL” value in assay [3] (setting [9]) is recorded as 0.002 O.D. For the same compound, the “absorbance (O.D.) measured, FXa” value in assay [4] (setting [9]) was found to be 0.007 O.D. Besides, in assay [5] (setting [9]), the “absorbance (O.D.) measured, PL” value is recorded as 0.004 O.D.
For `N=C(N)NCCC[C@H](NC(=O)CNC(=O)[C@H](N)CCC(=O)O)C(=O)Nc1ccc(O)c(C(=O)O)c1` [PS-1298, H--D--Glu--Gly--Arg--CHA.2HCl], in that order: 0.401 O.D, 0.002 O.D, 0.003 O.D, 0.004 O.D and 0.004 O.D.
For `CCCC[C@H](NC(=O)[C@@H]1CCC(=O)N1)C(=O)N[C@@H](CCCNC(=N)N)C(=O)Nc1ccc(O)c(C(=O)O)c1` [PS-1296, H--PyroGlu--NLeu--Arg--CHA.HCl], in that order: 0.656 O.D, 0.002 O.D, 0.006 O.D, 0.008 O.D and 0.010 O.D.
The corresponding values for `CCC[C@H](NC(=O)[C@@H]1CCC(=O)N1)C(=O)N[C@@H](CCCNC(=N)N)C(=O)Nc1ccc(O)c(C(=O)O)c1` [PS-1295, H--PyroGlu--NVal--Arg--CHA.HCl] are 0.637 O.D, 0.002 O.D, 0.006 O.D, 0.008 O.D and 0.008 O.D.
On to `CC(C)[C@H](NC(=O)OCc1ccccc1)C(=O)NCC(=O)N[C@@H](CCCNC(=N)N)C(=O)Nc1ccc([N+](=O)[O-])cc1` [CHR-TRY, Benzyloxy-carbonyl-Val-Gly-Arg-p-Nitroanilide, reference compound] (HELM PEPTIDE1{[O=C(OCc1ccccc1)[*:2]].V.G.R.[O=[N+]([O-])c1ccc(N[*:1])cc1]}$$$$V2.0), for which, in assay [1] (405 nm (PNA substrate)), the “absorbance (O.D.) measured, Try” value was found to be 0.243 O.D. Besides, the “absorbance (O.D.) measured, TH” value in assay [2] (405 nm (PNA substrate)) is recorded as 0.050 O.D. Also, in assay [3] (405 nm (PNA substrate)), the “absorbance (O.D.) measured, KL” value stood at 0.008 O.D. For the same compound, the “absorbance (O.D.) measured, FXa” value in assay [4] (405 nm (PNA substrate)) is listed as 0.090 O.D. The reaction with thrombin result in assay [6] is given as “considerably reacts”. Besides, the reaction with plasmin result in assay [7] is on record as “considerably reacts”. Moreover, in assay [8], the “reaction with factor Xa” value is “considerably reacts”. Also, the “absorbance (O.D.) measured, PL” value in assay [5] (405 nm (PNA substrate)) stood at 0.014 O.D.
As to `CC[C@H](NC(=O)[C@@H]1CCC(=O)N1)C(=O)N[C@@H](CCCNC(=N)N)C(=O)Nc1ccc(O)c(C(=O)O)c1` [PS-1294, H--PyroGlu--But--Arg--CHA.HCl], the “absorbance (O.D.) measured, Try” value in assay [1] (setting [9]) came to 0.588 O.D. Besides, the “absorbance (O.D.) measured, TH” value in assay [2] (setting [9]) is listed as 0.003 O.D. Besides, the “absorbance (O.D.) measured, KL” value in assay [3] (setting [9]) is 0.003 O.D. Besides, the “absorbance (O.D.) measured, FXa” value in assay [4] (setting [9]) amounted to 0.010 O.D. In addition, in assay [5] (setting [9]), the “absorbance (O.D.) measured, PL” value amounted to 0.008 O.D.
Consider “H--D--PyroGlu--Ala--Arg--CHA.HCl [PS-1290]”, for which the “absorbance (O.D.) measured, Try” value in assay [1] (setting [9]) amounted to 0.403 O.D. The “absorbance (O.D.) measured, TH” value in assay [2] (setting [9]) stood at 0.005 O.D. In addition, the “absorbance (O.D.) measured, KL” value in assay [3] (setting [9]) was determined as 0.002 O.D. In addition, the “absorbance (O.D.) measured, FXa” value in assay [4] (setting [9]) is reported as 0.007 O.D. Also, the “absorbance (O.D.) measured, PL” value in assay [5] (setting [9]) was found to be 0.000 O.D.
